Measured values reported in ChEMBL document CHEMBL4376834, “Discovery of 4H-Chromen-4-one Derivatives as a New Class of Selective Rho Kinase (ROCK) Inhibitors, which Showed Potent Activity in ex Vivo Diabetic Retinopathy Models” (J Med Chem, 2019).

Tests used:
CDK7/Cyclin H/MNAT1 = CDK7/Cyclin H/MNAT1 (Homo sapiens, UniProt P50613); assay: Inhibition of recombinant full length human CDK7/cyclinH/MAT1 using peptide substrate incubated for 40 mins in presence of [gamma-33ATP] by radiometric scintillation counting analysis; type: protein-complex assay
[1] = target: Tyrosine-protein kinase Blk (Homo sapiens, UniProt P51451); assay: Inhibition of human full-length recombinant BLK M287V mutant using poly(Glu, Tyr) 4:1 as substrate measured after 40 mins in presence of [gamma33P]ATP by radiometric scintillation counting analysis
[2] = target: Serine/threonine-protein kinase STK11 (Homo sapiens, UniProt Q15831); assay: Inhibition of recombinant full length human LKB1 using LSNLYHQGKFLQT as substrate after 40 mins in presence of [gamma-33ATP] by radiometric scintillation counting analysis
[3] = target: Serine/threonine-protein kinase pim-1 (Homo sapiens, UniProt P11309); assay: Inhibition of recombinant full length human Pim1 using KKRNRTLTV as substrate incubated for 40 mins in presence of [gamma33P]ATP by radiometric scintillation counting analysis
[4] = Inhibition of human MAPK2
[5] = target: [Pyruvate dehydrogenase (acetyl-transferring)] kinase isozyme 4, mitochondrial (Homo sapiens, UniProt Q16654); assay: Inhibition of recombinant human full length PDHK4 using KKKYHGHSMSDPG as substrate incubated for 40 mins in presence of [gamma33P]ATP by radiometric scintillation counting analysis
[6] = target: Protein-tyrosine kinase 2-beta (Homo sapiens, UniProt Q14289); assay: Inhibition of recombinant human full length PYK2 using poly(Glu, Tyr) 4:1 as substrate incubated for 40 mins in presence of [gamma33P]ATP by radiometric scintillation counting analysis
[7] = target: High affinity nerve growth factor receptor (Homo sapiens, UniProt P04629); assay: Inhibition of recombinant human TRKA (440 to end residues) using KKKSPGEYVNIEF as substrate incubated for 40 mins in presence of [gamma33P]ATP by radiometric scintillation counting analysis
[8] = target: Proto-oncogene tyrosine-protein kinase Src (Homo sapiens, UniProt P12931); assay: Inhibition of recombinant human SRC (1 to 530 residues) using GGEEEEYFELVKK as substrate incubated for 40 mins in presence of [gamma33P]ATP by radiometric scintillation counting analysis
[9] = target: Protein kinase C gamma type (Homo sapiens, UniProt P05129); assay: Inhibition of recombinant full-length human PKCgamma using histone H1 as substrate incubated for 40 mins in presence of [gamma33P]ATP by radiometric scintillation counting analysis
[10] = Inhibition of recombinant human PKCeta V108L/G109R/L392Q triple mutant (2 to end residues) using ERMRPRKRQGSVRR as substrate incubated for 40 mins in presence of [gamma33P]ATP by radiometric scintillation counting analysis
[11] = target: Epidermal growth factor receptor (Homo sapiens, UniProt P00533, L858R/T790M); assay: Inhibition of recombinant human EGFR T790M/L858R double mutant (696 to end residues) using poly(Glu, Tyr) 4:1 as substrate after 40 mins in presence of [gamma-33ATP] by radiometric scintillation counting analysis
[12] = target: Tyrosine-protein kinase SYK (Homo sapiens, UniProt P43405); assay: Inhibition of recombinant human full length SYK using poly(Glu, Tyr) 4:1 as substrate incubated for 40 mins in presence of [gamma33P]ATP by radiometric scintillation counting analysis
[13] = target: Dual specificity protein kinase CLK4 (Homo sapiens, UniProt Q9HAZ1); assay: Inhibition of recombinant human CLK4 (128 to end residues) using YRRAAVPPSPSLSR as substrate incubated 40 mins in presence of [gamma-33ATP] by radiometric scintillation counting analysis
[14] = target: Cytoplasmic tyrosine-protein kinase BMX (Homo sapiens, UniProt P51813); assay: Inhibition of recombinant full length human BMX using poly(Glu, Tyr) 4:1 as substrate incubated for 40 mins in presence of [gamma-33ATP] by radiometric scintillation counting analysis
[15] = target: Mitogen-activated protein kinase kinase kinase kinase 3 (Homo sapiens, UniProt Q8IVH8); assay: Inhibition of recombinant human MAP4K3 (1 to 291 residues) using RLGRDKYKTLRQI as substrate incubated for 40 mins in presence of [gamma-33ATP by radiometric scintillation counting analysis
CDK9/cyclin T1 = CDK9/cyclin T1 (Homo sapiens, UniProt P50750); assay: Inhibition of recombinant full length human CDK9/cyclinT1 using KTFCGTPEYLAPE as substrate incubated for 40 mins in presence of [gamma-33ATP] by radiometric scintillation counting analysis; type: protein-complex assay
[16] = target: Phosphorylase b kinase gamma catalytic chain, skeletal muscle/heart isoform (Homo sapiens, UniProt Q16816); assay: Inhibition of recombinant full-length human PhKgamma1 using KKLNRTLSFAEPG as substrate incubated for 40 mins in presence of [gamma33P]ATP by radiometric scintillation counting analysis
[17] = target: Glycogen synthase kinase-3 alpha (Homo sapiens, UniProt P49840); assay: Inhibition of human GSK-3alpha S449A mutant (2 to end residues) using YRRAAVPPSPSLSR as substrate after 40 mins by [gamma-33ATP] radiometric scintillation counting analysis
Ephrin type-A receptor 2 = Ephrin type-A receptor 2 (Homo sapiens, UniProt P29317); assay: Inhibition of recombinant human EphA2 (596 to 900 residues) using poly(Glu, Tyr) 4:1 as substrate after 40 mins in presence of [gamma-33ATP] by radiometric scintillation counting analysis
[18] = target: Serine/threonine-protein kinase WNK1 (Homo sapiens, UniProt Q9H4A3); assay: Inhibition of recombinant human WNK1 (1 to 491 residues) using myelin basic protein as substrate incubated for 40 mins in presence of [gamma33P]ATP by radiometric scintillation counting analysis
[19] = target: Hepatocyte growth factor receptor (Homo sapiens, UniProt P08581, Y1230H); assay: Inhibition of recombinant human MET A1209G/V1290L/Y1248H triple mutant (974 to end residues) using KKKGQEEEYVFIE as substrate incubated for 40 mins in presence of [gamma-33ATP by radiometric scintillation counting analysis
[20] = target: Beta-adrenergic receptor kinase 1 (Homo sapiens, UniProt P25098); assay: Inhibition of recombinant full length human GRK2 using casein as substrate after 40 mins in presence of [gamma-33ATP] by radiometric scintillation counting analysis
TGF-beta receptor type-1 = TGF-beta receptor type-1 (Homo sapiens, UniProt P36897, T204D); assay: Inhibition of recombinant human TGFBR1 T204D mutant (200 to end residues) using casein as substrate incubated for 40 mins in presence of [gamma33P]ATP by radiometric scintillation counting analysis
Misshapen-like kinase 1 = Misshapen-like kinase 1 (Homo sapiens, UniProt Q8N4C8); assay: Inhibition of recombinant human MINK (1 to 310 residues) using myelin basic protein as substrate incubated for 40 mins in presence of [gamma-33ATP by radiometric scintillation counting analysis
[21] = target: Serine/threonine-protein kinase Sgk3 (Homo sapiens, UniProt Q96BR1); assay: Inhibition of recombinant human SGK3 (119 to end residues) using GRPRTSSFAEGKK as substrate incubated for 40 mins in presence of [gamma33P]ATP by radiometric scintillation counting analysis

Measured: IC50

Mitogen-activated protein kinase kinase kinase kinase 3, sequence (Q8IVH8 whole entry, the tested form may be a part): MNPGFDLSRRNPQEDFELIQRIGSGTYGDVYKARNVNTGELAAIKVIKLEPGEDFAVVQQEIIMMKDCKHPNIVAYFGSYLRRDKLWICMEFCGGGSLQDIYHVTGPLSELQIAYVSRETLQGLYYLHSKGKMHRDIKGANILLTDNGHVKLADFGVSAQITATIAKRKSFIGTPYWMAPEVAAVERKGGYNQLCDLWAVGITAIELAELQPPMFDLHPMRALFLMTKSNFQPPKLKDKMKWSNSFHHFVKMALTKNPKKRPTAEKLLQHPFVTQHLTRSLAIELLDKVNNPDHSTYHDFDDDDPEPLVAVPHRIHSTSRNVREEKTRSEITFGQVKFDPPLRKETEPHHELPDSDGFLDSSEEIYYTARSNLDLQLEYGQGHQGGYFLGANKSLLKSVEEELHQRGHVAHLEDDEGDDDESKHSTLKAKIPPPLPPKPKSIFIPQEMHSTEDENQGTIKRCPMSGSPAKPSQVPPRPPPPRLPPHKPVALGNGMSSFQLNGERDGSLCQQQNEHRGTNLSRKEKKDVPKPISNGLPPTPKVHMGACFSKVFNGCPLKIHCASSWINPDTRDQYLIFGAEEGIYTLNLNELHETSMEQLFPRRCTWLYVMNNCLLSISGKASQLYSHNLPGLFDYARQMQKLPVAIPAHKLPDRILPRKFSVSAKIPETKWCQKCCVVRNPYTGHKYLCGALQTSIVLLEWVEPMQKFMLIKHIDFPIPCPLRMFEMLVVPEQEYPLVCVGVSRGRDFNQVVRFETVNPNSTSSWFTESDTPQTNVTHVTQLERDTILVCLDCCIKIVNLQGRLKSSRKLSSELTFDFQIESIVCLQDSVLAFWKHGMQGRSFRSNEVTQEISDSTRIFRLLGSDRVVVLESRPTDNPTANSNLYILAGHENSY
Serine/threonine-protein kinase STK11, sequence (Q15831 whole entry): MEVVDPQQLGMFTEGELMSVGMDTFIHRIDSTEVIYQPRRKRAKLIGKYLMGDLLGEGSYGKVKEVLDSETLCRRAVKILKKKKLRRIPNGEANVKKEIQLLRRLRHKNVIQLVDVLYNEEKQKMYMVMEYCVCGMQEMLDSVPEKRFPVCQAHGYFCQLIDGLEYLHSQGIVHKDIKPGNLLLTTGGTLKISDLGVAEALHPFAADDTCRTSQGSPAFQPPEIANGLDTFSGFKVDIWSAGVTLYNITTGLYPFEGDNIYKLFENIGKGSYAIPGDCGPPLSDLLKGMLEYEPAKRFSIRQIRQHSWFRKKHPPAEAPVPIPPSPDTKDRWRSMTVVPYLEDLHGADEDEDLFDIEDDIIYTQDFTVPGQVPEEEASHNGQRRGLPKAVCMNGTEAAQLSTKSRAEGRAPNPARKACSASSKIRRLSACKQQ
Serine/threonine-protein kinase WNK1, sequence (Q9H4A3 whole entry, the tested form may be a part): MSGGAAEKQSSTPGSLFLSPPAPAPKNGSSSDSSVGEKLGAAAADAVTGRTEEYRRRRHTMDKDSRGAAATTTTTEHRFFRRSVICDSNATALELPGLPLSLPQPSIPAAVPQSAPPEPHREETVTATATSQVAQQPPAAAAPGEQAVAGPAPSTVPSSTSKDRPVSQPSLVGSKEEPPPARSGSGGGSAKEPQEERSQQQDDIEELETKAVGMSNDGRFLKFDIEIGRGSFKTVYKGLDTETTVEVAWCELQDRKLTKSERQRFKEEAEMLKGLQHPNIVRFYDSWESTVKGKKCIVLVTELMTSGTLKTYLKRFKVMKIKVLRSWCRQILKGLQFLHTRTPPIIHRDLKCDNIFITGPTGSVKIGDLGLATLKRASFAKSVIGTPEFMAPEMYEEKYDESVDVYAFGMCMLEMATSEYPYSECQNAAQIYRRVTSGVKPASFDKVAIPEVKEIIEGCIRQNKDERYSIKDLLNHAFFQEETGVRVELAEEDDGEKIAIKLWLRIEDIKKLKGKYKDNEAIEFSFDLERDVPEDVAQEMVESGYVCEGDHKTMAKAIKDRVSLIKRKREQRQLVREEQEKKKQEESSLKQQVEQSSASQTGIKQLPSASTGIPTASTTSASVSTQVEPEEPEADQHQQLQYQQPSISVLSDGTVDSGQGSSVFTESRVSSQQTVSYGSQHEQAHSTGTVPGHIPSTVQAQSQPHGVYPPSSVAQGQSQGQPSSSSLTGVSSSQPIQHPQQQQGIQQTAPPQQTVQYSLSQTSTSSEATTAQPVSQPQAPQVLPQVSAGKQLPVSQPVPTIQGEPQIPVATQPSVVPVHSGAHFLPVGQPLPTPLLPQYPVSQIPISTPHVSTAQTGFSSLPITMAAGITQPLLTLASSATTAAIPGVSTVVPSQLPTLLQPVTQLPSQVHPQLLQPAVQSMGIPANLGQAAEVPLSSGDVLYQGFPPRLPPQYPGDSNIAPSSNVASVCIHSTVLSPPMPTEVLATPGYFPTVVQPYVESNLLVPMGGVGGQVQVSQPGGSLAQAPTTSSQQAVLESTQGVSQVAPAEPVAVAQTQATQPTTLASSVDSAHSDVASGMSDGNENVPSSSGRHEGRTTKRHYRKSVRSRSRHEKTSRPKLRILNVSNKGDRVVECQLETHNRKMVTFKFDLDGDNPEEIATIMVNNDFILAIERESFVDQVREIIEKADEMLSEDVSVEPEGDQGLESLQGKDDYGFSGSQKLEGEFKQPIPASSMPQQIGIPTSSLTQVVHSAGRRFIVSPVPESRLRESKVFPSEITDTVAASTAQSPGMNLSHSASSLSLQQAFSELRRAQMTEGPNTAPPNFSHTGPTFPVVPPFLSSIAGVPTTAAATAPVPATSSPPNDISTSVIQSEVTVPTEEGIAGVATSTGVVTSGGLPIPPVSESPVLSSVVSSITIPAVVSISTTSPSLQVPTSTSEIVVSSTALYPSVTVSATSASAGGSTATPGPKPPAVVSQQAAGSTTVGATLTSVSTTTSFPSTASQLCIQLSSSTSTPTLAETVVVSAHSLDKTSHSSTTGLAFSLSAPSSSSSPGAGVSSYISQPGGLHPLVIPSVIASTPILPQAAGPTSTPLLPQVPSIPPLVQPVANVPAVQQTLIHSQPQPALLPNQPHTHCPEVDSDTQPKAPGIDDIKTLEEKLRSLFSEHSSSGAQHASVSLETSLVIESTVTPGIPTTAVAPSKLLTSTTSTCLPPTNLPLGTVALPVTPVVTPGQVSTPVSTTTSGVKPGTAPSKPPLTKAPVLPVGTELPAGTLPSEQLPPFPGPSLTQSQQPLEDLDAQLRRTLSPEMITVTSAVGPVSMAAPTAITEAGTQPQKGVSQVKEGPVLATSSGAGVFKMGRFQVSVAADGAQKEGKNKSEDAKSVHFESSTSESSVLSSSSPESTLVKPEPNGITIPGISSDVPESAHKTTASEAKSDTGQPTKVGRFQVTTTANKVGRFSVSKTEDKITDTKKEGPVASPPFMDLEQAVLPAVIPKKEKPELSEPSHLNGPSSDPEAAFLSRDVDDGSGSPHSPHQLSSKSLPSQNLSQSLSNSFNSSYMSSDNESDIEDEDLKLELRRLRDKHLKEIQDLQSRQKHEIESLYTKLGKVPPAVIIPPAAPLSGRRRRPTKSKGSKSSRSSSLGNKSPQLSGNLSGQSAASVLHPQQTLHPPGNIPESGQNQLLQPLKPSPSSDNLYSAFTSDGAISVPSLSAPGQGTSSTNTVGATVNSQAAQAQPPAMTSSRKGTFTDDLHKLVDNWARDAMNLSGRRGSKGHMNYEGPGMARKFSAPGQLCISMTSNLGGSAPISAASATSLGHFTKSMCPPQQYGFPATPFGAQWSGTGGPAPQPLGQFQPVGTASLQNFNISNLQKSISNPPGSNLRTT
Beta-adrenergic receptor kinase 1, sequence (P25098 whole entry): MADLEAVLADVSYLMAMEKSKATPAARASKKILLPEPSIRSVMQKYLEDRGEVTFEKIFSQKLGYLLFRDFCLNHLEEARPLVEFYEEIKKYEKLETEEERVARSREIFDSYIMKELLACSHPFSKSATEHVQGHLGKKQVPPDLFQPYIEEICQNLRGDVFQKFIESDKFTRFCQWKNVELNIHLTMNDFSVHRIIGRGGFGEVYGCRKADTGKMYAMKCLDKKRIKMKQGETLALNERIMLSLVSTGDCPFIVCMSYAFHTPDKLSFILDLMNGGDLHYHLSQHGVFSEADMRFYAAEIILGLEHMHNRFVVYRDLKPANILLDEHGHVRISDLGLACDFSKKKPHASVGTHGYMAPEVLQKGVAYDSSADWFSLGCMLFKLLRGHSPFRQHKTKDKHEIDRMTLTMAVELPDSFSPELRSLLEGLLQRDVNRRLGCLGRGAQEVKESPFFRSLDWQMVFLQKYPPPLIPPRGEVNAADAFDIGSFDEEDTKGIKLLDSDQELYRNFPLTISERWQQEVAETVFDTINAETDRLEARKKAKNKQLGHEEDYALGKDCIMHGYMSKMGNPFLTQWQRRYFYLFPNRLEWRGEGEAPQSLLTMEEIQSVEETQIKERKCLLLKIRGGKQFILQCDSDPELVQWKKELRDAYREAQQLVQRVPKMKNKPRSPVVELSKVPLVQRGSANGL
Phosphorylase b kinase gamma catalytic chain, skeletal muscle/heart isoform, sequence (Q16816 whole entry, canonical isoform): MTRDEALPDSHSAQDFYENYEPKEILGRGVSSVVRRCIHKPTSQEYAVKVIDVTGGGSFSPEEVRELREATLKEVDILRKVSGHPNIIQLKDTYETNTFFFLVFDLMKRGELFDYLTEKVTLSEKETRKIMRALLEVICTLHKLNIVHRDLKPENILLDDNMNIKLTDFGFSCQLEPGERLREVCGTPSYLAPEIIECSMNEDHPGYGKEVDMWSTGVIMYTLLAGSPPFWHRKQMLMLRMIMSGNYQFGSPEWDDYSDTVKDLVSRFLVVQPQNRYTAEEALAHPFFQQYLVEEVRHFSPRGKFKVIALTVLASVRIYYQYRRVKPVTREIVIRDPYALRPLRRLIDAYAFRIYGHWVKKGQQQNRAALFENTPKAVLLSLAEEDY
Serine/threonine-protein kinase pim-1, sequence (P11309 whole entry): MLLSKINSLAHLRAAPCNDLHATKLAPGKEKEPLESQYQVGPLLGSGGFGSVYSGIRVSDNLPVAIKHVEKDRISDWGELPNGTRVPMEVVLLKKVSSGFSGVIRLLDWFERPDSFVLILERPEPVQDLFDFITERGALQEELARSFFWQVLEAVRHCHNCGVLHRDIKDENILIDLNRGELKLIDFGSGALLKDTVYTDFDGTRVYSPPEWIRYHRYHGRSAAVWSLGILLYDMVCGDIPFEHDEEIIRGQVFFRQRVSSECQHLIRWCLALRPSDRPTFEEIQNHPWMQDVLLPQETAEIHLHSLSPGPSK

CN(C)c1ccc(C(=O)Nc2cccc(NC(=O)COc3ccc4c(=O)ccoc4c3)c2)cc1
> 10 µM: all assays above
